From ChEMBL document CHEMBL1150536, “Synthesis and pharmacological characterization of l-trans-4-tetrazolylproline (ly300020): A novel systemically-active ampa receptor agonist” (Bioorg Med Chem Lett, 1993) come the findings set out here.

Each structure is given as a SMILES string. Activity calls are given as the source filed them. No cut-off for these calls is given here. A value given as a limit tells only on which side of the number the result lay.

For assay [1], the target named is Glutamate receptor ionotropic, NMDA 2C (Rattus norvegicus, UniProt Q00961). The experiment in a line: Tested for the ability to displace [3H]CGS-19,755 (10 nM) binding in rat forebrain membranes for NMDA receptor. The format is cell membranes, Membrane.
Assay [2] concerns the target Glutamate receptor ionotropic, AMPA (Rattus norvegicus, UniProt P19490+P19491+P19492+P19493). The experiment in a line: Tested for the ability to displace [3H]AMPA (5 nM) from Ionotropic glutamate receptor AMPA in rat forebrain membranes. It counts as cell membranes, Membrane.
For assay [3], the target named is Glutamate receptor ionotropic, kainate. The assay can be described thus: Tested for the ability to displace [3H]kainate (5 nM) binding from Ionotropic glutamate receptor kainate in rat forebrain membranes. It counts as cell membranes, Membrane.
The species named for the next assay is Rattus norvegicus. The experiment in a line: Tested for the ability to antagonize depolarizations induced by NMDA (40 uM), AMPA (40 uM); insignificant. The format is functional.

Chain of Glutamate receptor ionotropic, NMDA 2C (Q00961 whole entry): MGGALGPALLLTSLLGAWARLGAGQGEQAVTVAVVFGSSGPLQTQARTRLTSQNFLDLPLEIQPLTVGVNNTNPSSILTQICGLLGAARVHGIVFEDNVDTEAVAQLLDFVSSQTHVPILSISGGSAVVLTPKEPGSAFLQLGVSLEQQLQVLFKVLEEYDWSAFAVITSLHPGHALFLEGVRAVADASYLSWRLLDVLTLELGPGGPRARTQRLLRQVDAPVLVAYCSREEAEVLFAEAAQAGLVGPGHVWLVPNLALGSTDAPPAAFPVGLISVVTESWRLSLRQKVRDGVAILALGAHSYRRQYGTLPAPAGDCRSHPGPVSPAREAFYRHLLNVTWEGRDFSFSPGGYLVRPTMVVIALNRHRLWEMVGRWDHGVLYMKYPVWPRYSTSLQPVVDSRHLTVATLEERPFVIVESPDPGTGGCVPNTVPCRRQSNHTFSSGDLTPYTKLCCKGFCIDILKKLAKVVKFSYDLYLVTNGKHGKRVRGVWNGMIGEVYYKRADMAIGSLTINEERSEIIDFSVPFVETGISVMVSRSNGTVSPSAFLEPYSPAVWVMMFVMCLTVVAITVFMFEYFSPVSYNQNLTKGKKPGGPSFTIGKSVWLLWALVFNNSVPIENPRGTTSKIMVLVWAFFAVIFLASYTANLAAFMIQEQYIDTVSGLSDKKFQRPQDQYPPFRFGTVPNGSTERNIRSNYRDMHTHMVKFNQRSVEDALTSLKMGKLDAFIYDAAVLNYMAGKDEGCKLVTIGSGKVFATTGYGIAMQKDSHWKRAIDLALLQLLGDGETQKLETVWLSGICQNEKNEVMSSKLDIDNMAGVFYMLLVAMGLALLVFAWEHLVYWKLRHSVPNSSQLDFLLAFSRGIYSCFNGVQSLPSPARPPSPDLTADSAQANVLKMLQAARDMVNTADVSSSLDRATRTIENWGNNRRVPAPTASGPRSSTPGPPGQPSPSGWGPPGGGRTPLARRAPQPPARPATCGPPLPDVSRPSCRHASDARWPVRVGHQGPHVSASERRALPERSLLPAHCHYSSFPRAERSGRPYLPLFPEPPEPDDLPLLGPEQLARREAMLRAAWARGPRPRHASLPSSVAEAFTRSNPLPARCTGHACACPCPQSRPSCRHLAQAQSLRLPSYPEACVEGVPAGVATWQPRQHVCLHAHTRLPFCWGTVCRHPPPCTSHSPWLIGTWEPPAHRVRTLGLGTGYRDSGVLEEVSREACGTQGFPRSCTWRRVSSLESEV

Usually IC50 stands for the concentration that inhibits the measured activity by half. For `O=C(O)[C@H]1CN[C@H](C(=O)O)C1`, the IC50 in assay [1], in assay [2] and in assay [3] was more than 100 µM in each case.

As to `O=C(O)[C@H]1C[C@H](c2nnn[nH]2)CN1`, the IC50 in assay [1], in assay [2] and in assay [3] was more than 100 µM each time.

In the case of `O=C(O)[C@@H]1C[C@@H](c2nnn[nH]2)CN1`, the figures for the IC50 in assay [1], in assay [2] and in assay [3] were more than 100 µM, 3.38 µM and 61 µM, respectively. The Effect entry in the assay listed under Rattus norvegicus is “inactive”.
